Measurements published in PubChem BioAssay (NCI).
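96-well plates; 48 h exposure; 5 concentrations. Endpoints by linear interpolation between flanking doses. Not reached: highest tested concentration assigned. TGI: total growth inhibition.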

Key:
Experiment in all cases: NCI-60 cell line screen, 48 h
[1] = tested on: HCT-116 colon
[2] = tested on: HOP-62 NSCLC
[3] = tested on: NCI-H226 lung
[4] = tested on: NCI-H460 lung
[5] = tested on: RPMI-8226 leukemia
[6] = tested on: SF-295 CNS
[7] = tested on: SK-MEL-2 melanoma
[8] = tested on: UACC-257 melanoma
[9] = tested on: MCF7 breast
[10] = tested on: CAKI-1 renal

Compound	TGI [1]	TGI [2]	TGI [3]	TGI [4]	TGI [5]	TGI [6]	TGI [7]	TGI [8]	TGI [9]	TGI [10]
CC(=O)Nc1ccc(C(=O)NN2C(=O)C(Cl)C2c2cccc([N+](=O)[O-])c2)cc1 (stereo not given)	> 100 µM	> 100 µM	> 100 µM	> 100 µM	> 100 µM	> 100 µM	> 100 µM	> 100 µM		
Cc1n[n+]([O-])c(C)cc1[N+](=O)[O-]	31.6 µM	42.7 µM	60 µM	28.4 µM	6.31 µM		42.3 µM	29 µM	45.6 µM	
COC(=O)C1CC23C4=C(CCC41)CCC1CN4CC(C)C(CC(OC(C)=O)C12COC(C)=O)C43O (stereo not given)	> 100 µM	> 100 µM		> 100 µM	> 100 µM	> 100 µM	> 100 µM	> 100 µM	> 100 µM	> 100 µM
CCOC(=O)c1c(-c2cccc(Cl)c2)c(C(=O)OC)c(C)c2sc(C=O)nc12	21.1 µM	28.8 µM	44.2 µM	50.1 µM	46.4 µM	32.5 µM	37.1 µM	> 100 µM	35.7 µM	43 µM
CCOCC(=O)N(C)c1cccc2c3c(n(C)c12)CCCCC3	> 100 µM	> 100 µM	> 100 µM	> 100 µM		> 100 µM	> 100 µM	> 100 µM	> 100 µM	> 100 µM
OCCCSCCO	> 100 µM	> 100 µM	> 100 µM	> 100 µM	> 100 µM	> 100 µM	> 100 µM	> 100 µM	> 100 µM	> 100 µM
CC1=CC(O)C(C(O)(C(F)(F)F)C(F)(F)F)C(C)(C)C1 (stereo not given)	> 10 µM	> 10 µM	> 10 µM	> 10 µM	> 10 µM	> 10 µM	> 10 µM	> 10 µM	> 10 µM	> 10 µM
O=C(O)C(O)C(O)C(O)C(O)C(=O)O (stereo not given)	> 100 µM	> 100 µM	> 100 µM	> 100 µM		> 100 µM	> 100 µM	> 100 µM	> 100 µM	> 100 µM
COC(=O)C1=C(OC(=O)/C=C/c2ccc(Cl)cc2)C(C(=O)OC)[C@]2(O)[C@@H](C(=O)OC)[C@H]1C[C@@H](c1ccccc1)[C@@H]2C(=O)OC (stereo not given in full)	> 29.4 µM	> 100 µM	18.6 µM	> 100 µM	> 100 µM	> 100 µM	> 27.9 µM	> 100 µM		> 100 µM
O=C1C2Cc3c(n(C(=O)c4ccccc4)c4ccccc34)CC2C(=O)N1c1ccc(Nc2ccc(N3C(=O)C4Cc5c(n(C(=O)c6ccccc6)c6ccccc56)CC4C3=O)cc2)cc1 (stereo not given)	> 100 µM	> 100 µM	> 100 µM	> 100 µM		> 100 µM		> 100 µM	> 100 µM	> 100 µM
